From publication PMC12045974, “T cell toxicity induced by tigecycline binding to the mitochondrial ribosome” (Nature Communications, 2025)
Values joined by “and” are separate entries in the source; they are usually repeats but may differ in a detail not shown here. Equal values may be shown once.

Assays:
[1] = tested on: mitochondrial translation in CD4+ and CD8+ T cells; assay: Mito-FUNCAT-FACS assay of mitochondrial translation on activated T cells; assay type: cell-based, human; conditions: per PBMC donor, listed as Pos ctrl
Experimental: Thawed PBMCs were washed with RPMI ( + 10% FBS, 2.05 mM L-glutamine (Sigma), and 55 μM 2-ME (Gibco)) before resting at 37 °C (5% CO2) for 30 min. After counting, cells were resuspended in FACS buffer at a density of 5 × 10^7 cells/ml. T cells were isolated using EasySep™ Human T Cell Isolation Kit (Stemcell Technologies). Purified T cells were counted and 85,000 cells per well seeded onto 96-well U-bottom plates with/without Human T-Activator CD3/CD28 beads (Invitrogen) at a 1:2.8 cell:bead ratio and 10 ng/ml IL-2 (Proteintech) in RPMI-1640 ( + 10% FBS, 2.05 mM L-glutamine (Sigma), and 55 μM 2-ME (Gibco)) for 48 h. To assess mitochondrial translation, activated T cells were washed twice with methionine/cysteine/pyruvate-free DMEM and incubated in methionine-depletion medium (DMEM supplemented with 10% dialyzed FBS, 1× GlutaMAX, 1× sodium pyruvate, and 0.2 mM L-cystine) for 30 min at 37 °C. To inhibit cytosolic translation, anisomycin (100 μg/mL) was added to the medium. For mitochondrial translation inhibition, 100 µg/mL chloramphenicol (309 μM, positive control) or tigecycline (2.5−10 μM) were added to the medium. Cells were then labeled with 50 μM L-homopropargylglycine (HPG) for 3 h at 37 °C, during which time the medium still contained antibiotics.
Following HPG labeling, cells were collected and stained with surface markers (CD4, CD8). Cells were pre-permeabilized with 0.005% digitonin in mitochondria-protective buffer (10 mM HEPES/KOH, 10 mM NaCl, 5 mM MgCl2, 300 mM sucrose, pH 7.5) for 3 min, fixed with 4% paraformaldehyde for 10 min, and fully permeabilized with 0.25% Triton X-100 for 5 min. After blocking with 5% BSA for 10 min, incorporated HPG was detected via copper-catalyzed cycloaddition using 0.05 μM Alexa Fluor 488 picolyl azide (Click-iT™ Plus Alexa Fluor™ 488 Picolyl Azide Toolkit, Gibco) for 30 min at room temperature. Subsequently, the reaction cocktail was removed and cells resuspended in FACS buffer. Flow cytometry was carried out on a BD Celesta (BD Biosciences) and analyzed in FlowJo (TreeStar). Data are presented as fold change relative to negative controls.

HeLa cells = assay: Cell viability assay (CCK-8), HeLa cells; assay type: cell-based; conditions: for cell vialibity normalized to Vehicle (DMSO): in % (unit assumed)
Experimental: (§1) Cells were seeded in 96-well plates ranging from 2000 to 15,000 cells per well depending on different cell lines and treated with antibiotics in serial dilutions for 72 h (120 h for the preliminary assays) in a humidified incubator (37 °C, 5% CO2) in 100 μl medium (DMEM with 10% FBS, 2.05 mM L-glutamine (Sigma) for Hek293 and Hela; RPMI-1640 with 10% FBS, 2.05 mM L-glutamine (Sigma), and 55 μM 2-ME (Gibco) for Jurkat T cells and PBMCs). Based on preliminary tests, the number of cells per well was optimized to 2000 for Hela and Hek293, 6000 for Jurkat T cells, and 15,000 for PBMCs. The stocks of antibiotics were prepared by dissolving in DMSO. As control, the same amount of DMSO was added to the non-treated groups. Serial drug dilutions were prepared in the corresponding medium to provide a total of 9 concentrations up to 300 μM for tetracyclines and up to 900 μM for additional bacterial protein synthesis inhibitors. After drug treatment, 10% CCK-8 (Cell Counting Kit-8, Sigma Aldrich) (10 μl per well) of the total volume was added to the cells and incubated for 1–4 h depending on cell lines (1 h for Hela and Hek293; 3 h for Jurkat T cells; 4 h for PBMCs) before the evaluation of the effect of antibiotics on cell viability. […] Results were visually confirmed under the light microscope. Each treatment was performed in technical repeats. Dose-response curves were plotted, mean ± SEM was shown, and half maximal inhibitory concentration (IC50) values were calculated in GraphPad Prism.

Jurkat T cells = assay: Cell viability assay (CCK-8), Jurkat T cells; assay type: cell-based, human; conditions: for cell vialibity normalized to Vehicle (DMSO): in % (unit assumed)
Experimental: as §1

Hek293 cells = assay: Cell viability assay (CCK-8), Hek293 cells; assay type: cell-based, human; conditions: in % (unit assumed)
Experimental: as §1

O=C(N[C@H](CO)[C@H](O)c1ccc([N+](=O)[O-])cc1)C(Cl)Cl [Chloramphenicol, chloramphenicol]
mitochondrial translation (fold change relative to negative control) ([1]; CD4, positive control 309 μM): 0.3672 and 0.3419 and 0.3517 and 0.3014
mitochondrial translation (fold change relative to negative control) ([1]; CD8, positive control 309 μM): 0.3783 and 0.3616 and 0.3857 and 0.2719
cell vialibity normalized to Vehicle (DMSO) (HeLa cells; Hela 3d, dose 1 μM): 115.472 and 112.907 and 109.149 and 106.395 and 107.336
cell vialibity normalized to Vehicle (DMSO) (HeLa cells; Hela 3d, dose 5 μM): 99.7977 and 98.9686 and 95.4348 and 95.1889 and 93.3131
cell vialibity normalized to Vehicle (DMSO) (HeLa cells; Hela 3d, dose 10 μM): 85.1565 and 78.1239 and 77.2387 and 77.1403 and 78.8686
cell vialibity normalized to Vehicle (DMSO) (HeLa cells; Hela 3d, dose 100 μM): 10.3486 and 10.3064 and 10.2994 and 10.5805
cell vialibity normalized to Vehicle (DMSO) (HeLa cells; Hela 5d, dose 1 μM): 101.268 and 103.029 and 103.952 and 106.316 and 104.379
cell vialibity normalized to Vehicle (DMSO) (HeLa cells; Hela 5d, dose 5 μM): 96.435 and 103.217 and 108.966 and 107.207 and 102.082
cell vialibity normalized to Vehicle (DMSO) (HeLa cells; Hela 5d, dose 10 μM): 98.7408 and 101.357 and 94.3137 and 101.415 and 97.4373
cell vialibity normalized to Vehicle (DMSO) (HeLa cells; Hela 5d, dose 50 μM): 38.8993 and 53.367 and 28.3728 and 27.4352 and 29.5718
cell vialibity normalized to Vehicle (DMSO) (HeLa cells; Hela 5d, dose 100 μM): 5.6014 and 6.201 and 5.26 and 4.947 and 5.042
IC50 (HeLa cells; Homo sapiens, 120 h, HeLa, after 5 days, read-out: IC50 (cell survival)): 41.7 µM
IC50 (Jurkat T cells; Homo sapiens, 120 h, Jurkat T cells, after 5 days, read-out: IC50 (cell survival)): 25.9 µM
cell vialibity normalized to Vehicle (DMSO) (Jurkat T cells; Jurkat 3d, dose 1 μM): 91.6279 and 94.5323 and 104.434 and 103.886 and 105.55
cell vialibity normalized to Vehicle (DMSO) (Jurkat T cells; Jurkat 3d, dose 5 μM): 74.0465 and 84.1447 and 84.7132 and 88.5271 and 87.2868
cell vialibity normalized to Vehicle (DMSO) (Jurkat T cells; Jurkat 3d, dose 10 μM): 63.1628 and 61.0232 and 47.7623 and 47.907 and 61.2196
cell vialibity normalized to Vehicle (DMSO) (Jurkat T cells; Jurkat 3d, dose 50 μM): 13.1266 and 12.4444 and 12.0827 and 12.6408 and 12.4548
cell vialibity normalized to Vehicle (DMSO) (Jurkat T cells; Jurkat 3d, dose 100 μM): 11.7933 and 11.4419 and 11.2455 and 11.1111 and 11.3282
cell vialibity normalized to Vehicle (DMSO) (Jurkat T cells; Jurkat 5d, dose 1 μM): 106.953 and 119.838 and 129.235 and 117.806 and 137.373
cell vialibity normalized to Vehicle (DMSO) (Jurkat T cells; Jurkat 5d, dose 5 μM): 116.039 and 104.909 and 120.616 and 122.485 and 146.087
cell vialibity normalized to Vehicle (DMSO) (Jurkat T cells; Jurkat 5d, dose 10 μM): 103.365 and 68.172 and 100.846 and 74.0691 and 124.665
cell vialibity normalized to Vehicle (DMSO) (Jurkat T cells; Jurkat 5d, dose 50 μM): 10.0745 and 7.603 and 8.334 and 7.062 and 9.025
cell vialibity normalized to Vehicle (DMSO) (Jurkat T cells; Jurkat 5d, dose 100 μM): 7.529 and 7.5694 and 7.36 and 6.913 and 8.592

CN(C)c1cc(NC(=O)CNC(C)(C)C)c(O)c2c1C[C@H]1C[C@H]3[C@H](N(C)C)C(O)=C(C(N)=O)C(=O)[C@@]3(O)C(O)=C1C2=O [TIGE]
cell vialibity normalized to Vehicle (DMSO) (HeLa cells; Hela, dose 0.137174 μM): 99.0957 and 99.8329
cell vialibity normalized to Vehicle (DMSO) (HeLa cells; Hela, dose 0.411523 μM): 99.7643 and 100.836
cell vialibity normalized to Vehicle (DMSO) (HeLa cells; Hela, dose 1.23457 μM): 95.2089 and 96.0446
cell vialibity normalized to Vehicle (DMSO) (HeLa cells; Hela, dose 3.7037 μM): 96.0724 and 96.0446
cell vialibity normalized to Vehicle (DMSO) (HeLa cells; Hela, dose 11.1111 μM): 92.3538 and 93.0501
cell vialibity normalized to Vehicle (DMSO) (HeLa cells; Hela, dose 33.3333 μM): 92.3816 and 88.3426
cell vialibity normalized to Vehicle (DMSO) (HeLa cells; Hela, dose 100 μM): 85.5606 and 88.2068
cell vialibity normalized to Vehicle (DMSO) (HeLa cells; Hela, dose 300 μM): 79.8329 and 79.3036
cell vialibity normalized to Vehicle (DMSO) (HeLa cells; Hela, dose 900 μM): 37.2702 and 29.1086
cell vialibity normalized to Vehicle (DMSO) (Hek293 cells; HEK293, dose 0.137174 μM): 102.411 and 106.702
cell vialibity normalized to Vehicle (DMSO) (Hek293 cells; HEK293, dose 0.411523 μM): 106.064 and 102.447
cell vialibity normalized to Vehicle (DMSO) (Hek293 cells; HEK293, dose 1.23457 μM): 90.2128 and 81.4539
cell vialibity normalized to Vehicle (DMSO) (Hek293 cells; HEK293, dose 11.1111 μM): 38.3156 and 41.7553
cell vialibity normalized to Vehicle (DMSO) (Hek293 cells; HEK293, dose 33.3333 μM): 48.1383 and 50.0177
cell vialibity normalized to Vehicle (DMSO) (Hek293 cells; HEK293, dose 100 μM): 40.2704 and 46.6888
cell vialibity normalized to Vehicle (DMSO) (Hek293 cells; HEK293, dose 300 μM): 31.6312 and 31.5248
cell vialibity normalized to Vehicle (DMSO) (Hek293 cells; HEK293, dose 900 μM): 7.2695 and 4.539
cell vialibity normalized to Vehicle (DMSO) (Jurkat T cells; Jurkat, dose 0.137174 μM): 84.3137 and 94.7712
cell vialibity normalized to Vehicle (DMSO) (Jurkat T cells; Jurkat, dose 0.411523 μM): 86.6013 and 87.2549
cell vialibity normalized to Vehicle (DMSO) (Jurkat T cells; Jurkat, dose 1.23457 μM): 80.8824 and 75.3268
cell vialibity normalized to Vehicle (DMSO) (Jurkat T cells; Jurkat, dose 3.7037 μM): 47.0588 and 43.6275
cell vialibity normalized to Vehicle (DMSO) (Jurkat T cells; Jurkat, dose 11.1111 μM): 16.7484 and 17.0752
cell vialibity normalized to Vehicle (DMSO) (Jurkat T cells; Jurkat, dose 33.3333 μM): 6.618 and 5.964
